Bounds are passed on as bounds.

hERG, sequence (Q12809 whole entry): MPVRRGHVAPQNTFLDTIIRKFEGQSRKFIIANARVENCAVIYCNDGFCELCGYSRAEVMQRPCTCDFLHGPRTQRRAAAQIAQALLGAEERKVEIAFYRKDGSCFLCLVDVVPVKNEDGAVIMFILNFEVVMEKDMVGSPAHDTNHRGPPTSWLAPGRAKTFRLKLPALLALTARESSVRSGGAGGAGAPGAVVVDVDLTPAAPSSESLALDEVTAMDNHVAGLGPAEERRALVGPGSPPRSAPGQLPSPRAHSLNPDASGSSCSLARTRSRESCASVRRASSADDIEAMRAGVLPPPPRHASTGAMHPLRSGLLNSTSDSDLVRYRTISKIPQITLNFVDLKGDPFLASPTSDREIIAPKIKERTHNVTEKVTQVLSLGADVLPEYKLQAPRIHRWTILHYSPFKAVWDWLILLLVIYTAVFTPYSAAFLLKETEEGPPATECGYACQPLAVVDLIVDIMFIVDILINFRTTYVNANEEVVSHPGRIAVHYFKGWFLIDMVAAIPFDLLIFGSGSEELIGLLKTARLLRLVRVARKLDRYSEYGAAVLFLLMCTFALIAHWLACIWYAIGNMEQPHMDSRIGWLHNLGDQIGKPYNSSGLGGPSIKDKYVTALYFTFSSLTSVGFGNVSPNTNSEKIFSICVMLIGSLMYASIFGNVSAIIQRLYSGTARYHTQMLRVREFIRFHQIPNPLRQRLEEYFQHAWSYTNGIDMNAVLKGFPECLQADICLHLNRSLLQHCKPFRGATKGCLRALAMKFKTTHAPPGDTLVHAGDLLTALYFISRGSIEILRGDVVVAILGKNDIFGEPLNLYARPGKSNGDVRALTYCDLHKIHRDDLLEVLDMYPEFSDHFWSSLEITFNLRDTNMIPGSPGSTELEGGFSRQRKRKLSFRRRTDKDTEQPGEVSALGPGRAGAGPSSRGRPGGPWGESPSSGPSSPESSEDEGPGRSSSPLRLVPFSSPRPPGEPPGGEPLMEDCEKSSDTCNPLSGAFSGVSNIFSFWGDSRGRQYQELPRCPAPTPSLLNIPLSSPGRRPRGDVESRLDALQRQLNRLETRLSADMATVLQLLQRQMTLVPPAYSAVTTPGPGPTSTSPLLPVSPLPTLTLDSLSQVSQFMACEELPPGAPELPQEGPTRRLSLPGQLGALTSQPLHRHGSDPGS

One data set concerns the target hERG (Homo sapiens, UniProt Q12809). Put plainly: Patch clamp assay (hERG tail currents, whole-cell). The following applies: 30 μM compound.
Protocol: The 35 mm culture dishes upon which cells were seeded at a density allowing single cells to be recorded were placed on the dish holder of the microscope and continuously perfused (at approximately 1 mL/min) with the bath solution described in section 4.6. All solutions applied to cells including the pipette solution were maintained at room temperature (19° C. to 30° C.). After formation of a Gigaohm seal between the patch electrodes and individual hERG stably transfected HEK 293 cells (pipette resistance range: 2.0 MS to 7.0 MS; seal resistance range: >1GΩ) the cell membrane across the pipette tip was ruptured to assure electrical access to the cell interior (whole-cell patch-configuration). In case the quality of the seal was poor, the process of seal formation was repeated with a different cell and a new pipette. As soon as a stable seal could be established, hERG outward tail currents were measured upon depolarization of the cell membrane to +20 mV for 2 s (activation of channels) from a holding potential of −80 mV and upon subsequent repolarization to −40 mV for 3 s. This voltage protocol (as shown below) was run at least 10 times at intervals of 10 s. If current density was judged to be too low for measurement, another cell was recorded.
During wash-in of the test item the voltage protocol indicated above was run continuously again at 10 s intervals until the steady-state level of block was reached.
The IC50 was determined by fitting the dose response curve with a 2-parameter logistic function (amax=100%).
Turning to `CC(C)N(C(=O)c1cc(F)ccc1Oc1cncnc1N1CC2(CCN(C[C@@H]3CC[C@@H](NS(=O)(=O)N4CC5COCC5C4)CO3)CC2)C1)C(C)C` (stereo partly drawn) [Example 224, 5-Fluoro-2-((4-(7-(((2S,5R)-5-((hexahydro-1H-furo[3,4-c]pyrrole)-5-sulfonamido)tetrahydro-2H-pyran-2-yl)methyl)-2,7-diazaspiro[3.5]nonan-2-yl)pyrimidin-5-yl)oxy)-N,N-diisopropylbenzamide], the “hERG % Remaining” value is given as “+++ (≥66%)”. Same read-out and setting: the entry for `CCS(=O)(=NC)N[C@@H]1CC[C@@H](CN2CCC3(CC2)CN(c2ncncc2Oc2ccc(F)cc2C(=O)N(C(C)C)C(C)C)C3)OC1` (stereo partly drawn) [Example 231, 5-Fluoro-N,N-diisopropyl-2-((4-(7-(((2S,5R)-5-(N′-methylethylsulfonoamidimidamido)tetrahydro-2H-pyran-2-yl)methyl)-2,7-diazaspiro[3.5]nonan-2-yl)pyrimidin-5-yl)oxy)benzamide] is “+++ (≥66%)”. On to `CC(C)N(CC(F)F)C(=O)c1cc(F)ccc1Oc1cncnc1N1CC2(CCN(C[C@@H]3CC[C@@H](NS(=O)(=O)c4nn(C)cc4F)CO3)CC2)C1` [Example 241, N-(2,2-Difluoroethyl)-5-fluoro-2-((4-(7-(((2S,5R)-5-((4-fluoro-1-methyl-1H-pyrazole)-3-sulfonamido)tetrahydro-2H-pyran-2-yl)methyl)-2,7-diazaspiro[3.5]nonan-2-yl)pyrimidin-5-yl)oxy)-N-isopropylbenzamide], for which the “hERG % Remaining” value is “++ (233% and ≤66%)”.

A further data set concerns the target T1, human Menin and N-terminal portion of human MLL (amino acids 4-43) (Homo sapiens, UniProt O00255).
T1 construct: H-FL-Menin diluted to 4 nM in assay buffer
T1 sequence (O00255 1-610): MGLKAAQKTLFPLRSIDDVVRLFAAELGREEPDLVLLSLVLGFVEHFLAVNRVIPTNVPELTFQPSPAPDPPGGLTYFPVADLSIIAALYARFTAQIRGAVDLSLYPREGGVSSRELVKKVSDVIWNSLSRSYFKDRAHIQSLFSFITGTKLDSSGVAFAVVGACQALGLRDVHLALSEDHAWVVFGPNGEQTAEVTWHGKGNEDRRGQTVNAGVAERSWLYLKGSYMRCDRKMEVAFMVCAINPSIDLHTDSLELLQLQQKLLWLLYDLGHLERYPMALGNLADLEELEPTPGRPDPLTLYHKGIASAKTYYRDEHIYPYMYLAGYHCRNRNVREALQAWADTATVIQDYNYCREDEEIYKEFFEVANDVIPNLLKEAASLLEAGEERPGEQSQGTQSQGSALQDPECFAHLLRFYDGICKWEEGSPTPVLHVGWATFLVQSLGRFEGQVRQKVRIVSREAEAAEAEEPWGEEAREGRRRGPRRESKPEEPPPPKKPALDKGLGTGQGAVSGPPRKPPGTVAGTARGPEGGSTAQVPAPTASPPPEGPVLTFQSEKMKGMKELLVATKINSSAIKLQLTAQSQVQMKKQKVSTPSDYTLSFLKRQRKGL
Kind of data set: Menin-MLL competition assay (HTRF). The data set is classed as binding. Particulars: 1 hr incubation. An excerpt:
Menin-MLL is a competition assay between human Menin and N-terminal portion of human MLL representing amino acids 4-43 of the protein. The interaction between Menin and MLL peptide was monitored by HTRF employing Terbium labeled anti-His6 antibody directed to the N-terminal His6-tag on recombinant Menin and FITC group covalently attached to the MLL peptide. The N-terminal fragment of MLL, retained in all MLL fusion proteins, is involved in the interactions with Menin, and this protein-protein interaction is critical for the MLL fusion proteins mediated leukemogenic transformations.
For IC50 determination test compounds were prepared as 10 mM DMSO stock solutions. Considering DMSO as the vehicle in the assay system. Lower sub-stocks of 50 μM were prepared from the 10 mM stock solution. To test the compounds in assay, 3.16-fold serial dilutions are made in 100% DMSO. Mid-stock of 50×compounds (50 μM) were serially diluted (3.16 fold) in 100% DMSO in Polypropylene plate. In assay plate 1 micro-litre of the previously prepared compound dilution was stamped. H-FL-Menin diluted to 4 nM in assay buffer (50 mM Tris-HCl, pH 7.4, 50 mM NaCl, freshly prepared 1 mM DTT, 0.01% BSA, 0.005% Triton X-100) was pre-incubated with 8 nM anti-His6-Tb for 30 min at room temperature. FITC-MLL-4-43 was diluted to 2 nM in assay buffer and 25 μL was dispensed into each well of the assay plate followed by addition of 25 μl of pre-incubated H-FL-Menin and anti-His6-Tb mixture. Final concentration H-FL-Menin diluted to 1 nM in assay plate with 2 nM anti-His6-Tb and 1 nM FITC-MLL-4-43. After 1 hr incubation at room temperature, the HTRF signal was measured on the Spark multi-label plate reader. Resulting data were captured as a ratio of RFU520/RFU485×1000. The max values were obtained from 0% inhibition in presence of 2% DMSO and the min. values were 100% inhibition in presence of 1 μM reference compound.
`CCN(C(=O)c1cc(F)ccc1Oc1cncnc1N1CC2(CCN(C[C@@H]3CC[C@@H](NS(=O)(=O)C(C)C)CO3)CC2)C1)C(C)C` [Example 3, N-Ethyl-5-fluoro-N-isopropyl-2-((4-(7-(((2S,5R)-5-((1-methylethyl)sulfonamido)tetrahydro-2H-pyran-2-yl)methyl)-2,7-diazaspiro[3.5]nonan-2-yl)pyrimidin-5-yl)oxy)benzamide]: the IC50 is below 0.1 µM. Still for that read-out and setting: the same measure for `CCN(C(=O)c1cc(F)ccc1Oc1cncnc1N1CC2(CCN(C[C@@H]3CC[C@@H](NS(=O)(=O)C4COC4)CO3)CC2)C1)C(C)C` [Example 5, N-Ethyl-5-fluoro-N-isopropyl-2-((4-(7-(((2S,5R)-5-(oxetane-3-sulfonamido)tetrahydro-2H-pyran-2-yl)methyl)-2,7-diazaspiro[3.5]nonan-2-yl)pyrimidin-5-yl)oxy)benzamide]: below 0.1 µM; for `CCN(C(=O)c1cc(F)ccc1Oc1cncnc1N1CC2(CCN(C[C@@H]3CC[C@@H](NS(=O)(=O)CC4CC4)CO3)CC2)C1)C(C)C` [Example 7, 2-((4-(7-(((2S,5R)-5-((Cyclopropylmethyl)sulfonamido)tetrahydro-2H-pyran-2-yl)methyl)-2,7-diazaspiro[3.5]nonan-2-yl)pyrimidin-5-yl)oxy)-N-ethyl-5-fluoro-N-isopropylbenzamide]: below 0.1 µM; for `CCN(C(=O)c1cc(F)ccc1Oc1cncnc1N1CC2(CCN(C[C@@H]3CC[C@@H](NS(=O)(=O)CCOC)CO3)CC2)C1)C(C)C` [Example 8, N-Ethyl-5-fluoro-N-isopropyl-2-((4-(7-(((2S,5R)-5-((2-methoxyethyl)sulfonamido)tetrahydro-2H-pyran-2-yl)methyl)-2,7-diazaspiro[3.5]nonan-2-yl)pyrimidin-5-yl)oxy)benzamide]: below 0.1 µM. In the case of `CCCS(=O)(=O)N[C@@H]1CC[C@@H](CN2CCC3(CC2)CN(c2ncncc2Oc2ccc(F)cc2C(=O)N(CC)C(C)C)C3)OC1` [Example 9, N-Ethyl-5-fluoro-N-isopropyl-2-((4-(7-(((2S,5R)-5-(propylsulfonamido)tetrahydro-2H-pyran-2-yl)methyl)-2,7-diazaspiro[3.5]nonan-2-yl)pyrimidin-5-yl)oxy)benzamide], the IC50 is below 0.1 µM. Same read-out and setting: the same measure for `CC(C)N(C(=O)c1cc(F)ccc1Oc1cncnc1N1CC2(CCN(C[C@@H]3CC[C@@H](NC(=O)OC(C)(C)C)CO3)CC2)C1)C1CC1` [Example 17, tert-Butyl ((3R,6S)-6-((2-(5-(2-(cyclopropyl(isopropyl)carbamoyl)-4-fluorophenoxy)pyrimidin-4-yl)-2,7-diazaspiro[3.5]nonan-7-yl)methyl)tetrahydro-2H-pyran-3-yl)carbamate]: below 0.1 µM. Still for that read-out and setting: the figure for `CC(C)N(C(=O)c1cc(F)ccc1Oc1cncnc1N1CC2(CCN(C[C@@H]3CC[C@@H](NS(=O)(=O)C(C)C)CO3)CC2)C1)C1CC1` [Example 20, N-Cyclopropyl-5-fluoro-N-isopropyl-2-((4-(7-(((2S,5R)-5-((1-methylethyl)sulfonamido)tetrahydro-2H-pyran-2-yl)methyl)-2,7-diazaspiro[3.5]nonan-2-yl)pyrimidin-5-yl)oxy)benzamide] is below 0.1 µM. On to `CC(C)N(C(=O)c1cc(F)ccc1Oc1cncnc1N1CC2(CCN(C[C@@H]3CC[C@@H](NS(=O)(=O)C4COC4)CO3)CC2)C1)C1CC1` [Example 22, N-Cyclopropyl-5-fluoro-N-isopropyl-2-((4-(7-(((2S,5R)-5-(oxetane-3-sulfonamido)tetrahydro-2H-pyran-2-yl)methyl)-2,7-diazaspiro[3.5]nonan-2-yl)pyrimidin-5-yl)oxy)benzamide], for which the IC50 was below 0.1 µM. `C[C@@H]1COC[C@H](C)N1C(=O)c1cc(F)ccc1Oc1cncnc1N1CC2(CCN(C[C@@H]3CC[C@@H](NS(C)(=O)=O)CO3)CC2)C1` [Example 23, N-((3R,6S)-6-((2-(5-(2-((3S,5R)-3,5-Dimethylmorpholine-4-carbonyl)-4-fluorophenoxy)pyrimidin-4-yl)-2,7-diazaspiro[3.5]nonan-7-yl)methyl)tetrahydro-2H-pyran-3-yl)methanesulfonamide] came in with an IC50 below 0.1 µM. Same read-out and setting: the figure for `CCS(=O)(=O)N[C@@H]1CC[C@@H](CN2CCC3(CC2)CN(c2ncncc2Oc2ccc(F)cc2C(=O)N2[C@H](C)COC[C@@H]2C)C3)OC1` [Example 24, N-((3R,6S)-6-((2-(5-(2-((3S,5R)-3,5-dimethylmorpholine-4-carbonyl)-4-fluorophenoxy)pyrimidin-4-yl)-2,7-diazaspiro[3.5]nonan-7-yl)methyl)tetrahydro-2H-pyran-3-yl)ethanesulfonamide] is below 0.1 µM; for `CC(C)S(=O)(=O)N[C@@H]1CC[C@@H](CN2CCC3(CC2)CN(c2ncncc2Oc2ccc(F)cc2C(=O)N2[C@H](C)COC[C@@H]2C)C3)OC1` [Example 25, N-((3R,6S)-6-((2-(5-(2-((3S,5R)-3,5-Dimethylmorpholine-4-carbonyl)-4-fluorophenoxy)pyrimidin-4-yl)-2,7-diazaspiro[3.5]nonan-7-yl)methyl)tetrahydro-2H-pyran-3-yl)propane-2-sulfonamide] it is below 0.1 µM; for `C[C@@H]1COC[C@H](C)N1C(=O)c1cc(F)ccc1Oc1cncnc1N1CC2(CCN(C[C@@H]3CC[C@@H](NS(=O)(=O)C4CC4)CO3)CC2)C1` [Example 26, N-((3R,6S)-6-((2-(5-(2-((3S,5R)-3,5-Dimethylmorpholine-4-carbonyl)-4-fluorophenoxy)pyrimidin-4-yl)-2,7-diazaspiro[3.5]nonan-7-yl)methyl)tetrahydro-2H-pyran-3-yl)cyclopropanesulfonamide] it is below 0.1 µM.

A further data set concerns MLLr leukemia cell line MV4-11. Put plainly: Cell proliferation assay MV4;11 (CellTiter-Glo, 72 hours). The following applies: Homo sapiens, MV4-11, 72 h, read-out: MV4; 11 IC50 (nM). It counts as cell-based. The essentials: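 Cells in IMDM/10% FBS, seeded from a 15,000 cells/ml suspension, were exposed for 72 h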
Take `CCS(=O)(=NC)N[C@@H]1CC[C@@H](CN2CCC3(CC2)CN(c2ncncc2Oc2ccc(F)cc2C(=O)N(C(C)C)C(C)C)C3)OC1` (stereo partly drawn) [Example 231, 5-Fluoro-N,N-diisopropyl-2-((4-(7-(((2S,5R)-5-(N′-methylethylsulfonoamidimidamido)tetrahydro-2H-pyran-2-yl)methyl)-2,7-diazaspiro[3.5]nonan-2-yl)pyrimidin-5-yl)oxy)benzamide]: the IC50 was below 100 nM.

Still in this data set, the particulars now being: Homo sapiens; MV4-11 cells, 72 hours, CellTiter-Glo; read-out: MV4; 11 IC50.
With `CC(C)N(C(=O)c1cc(F)ccc1Oc1cncnc1N1CC2(CCN(C[C@@H]3CC[C@@H](NS(=O)(=O)N4CC5COCC5C4)CO3)CC2)C1)C(C)C` (stereo partly drawn) [Example 224, 5-Fluoro-2-((4-(7-(((2S,5R)-5-((hexahydro-1H-furo[3,4-c]pyrrole)-5-sulfonamido)tetrahydro-2H-pyran-2-yl)methyl)-2,7-diazaspiro[3.5]nonan-2-yl)pyrimidin-5-yl)oxy)-N,N-diisopropylbenzamide], the IC50 was below 100 nM. `CC(C)N(CC(F)F)C(=O)c1cc(F)ccc1Oc1cncnc1N1CC2(CCN(C[C@@H]3CC[C@@H](NS(=O)(=O)c4nn(C)cc4F)CO3)CC2)C1` [Example 241, N-(2,2-Difluoroethyl)-5-fluoro-2-((4-(7-(((2S,5R)-5-((4-fluoro-1-methyl-1H-pyrazole)-3-sulfonamido)tetrahydro-2H-pyran-2-yl)methyl)-2,7-diazaspiro[3.5]nonan-2-yl)pyrimidin-5-yl)oxy)-N-isopropylbenzamide]: the IC50 was below 100 nM.

The values are drawn from patent publication US20240400564A1 (Syndax Pharmaceuticals, Inc, priority 2021, published 2024).
